Data as given in PMC3447335, “Evaluation of Pseudopteroxazole and Pseudopterosin Derivatives against Mycobacterium tuberculosis and Other Pathogens” (Marine Drugs, 2012).
Values after ≈ are worked out from the molar mass of the structure shown. Read-outs that look alike come from different tables or passages of the source.

Key:
Vero cells = experiment: cells; details: Chlorocebus sabaeus; for cytotoxicity at 128 µg/mL: read-out: Vero cell (% inh); for IC50: read-out: Vero cell IC50
[1] = system: M. diernhoferi (ATCC 19340); experiment: Microbroth dilution antibiotic susceptibility assay; type: cell-based; details: Mycolicibacterium diernhoferi
VRE = experiment: as above; type: cell-based, Enterococcus faecium; details: Enterococcus, read-out: IC50 VRE
MRSA = experiment: as above; type: cell-based; details: Staphylococcus aureus, read-out: IC50 MRSA
[2] = system: M. tuberculosis H37Rv (ATCC 27294); experiment: microbe, parasite or virus in culture; type: cell-based, Mycobacterium tuberculosis; details: for inhibition at 64 µg/mL / MIC: Mycobacterium tuberculosis; for inhibition at 64 µg/mL: % inhibition at 64 μg/mL, read-out: LORA % inh; for MIC: read-out: LORA MIC
[3] = system: M. smegmatis (ATCC 12051); experiment: Microbroth dilution antibiotic susceptibility assay; type: cell-based; details: Mycolicibacterium smegmatis
[4] = system: M. tuberculosis H37Rv (ATCC 27294); experiment: Microplate Alamar blue assay (MABA); type: cell-based, Mycobacterium tuberculosis; details: for SI (Selectivity Index): (Vero Cell IC50)/(M. tuberculosis MIC); for MIC: Mycobacterium tuberculosis
[5] = ATCC19340, microbroth dilution, read-out: MIC M. diernhoferi
[6] = non-replicating persistent model
[7] = ATCC12051, microbroth dilution, read-out: MIC M. smegmatis
[8] = M. tuberculosis H37Rv (ATCC 27294), replicating, read-out: MABA MIC
[9] = wild-type M. tuberculosis H37Rv, Table 2 experiment, read-out: MABA MIC H37Rv

Compound | IC50 (Vero cells) [µg/mL] | MIC [1, 5] [µg/mL] | inhibition at 64 µg/mL [2] [%] | MIC [3, 7] [µg/mL] | SI (Selectivity Index) [4] | MIC [4, 8] [µg/mL] | other results
CC(C)=CC1CC(C)C2CCC(C)c3c2c1c(C)c1nc(Cc2cnc[nH]2)oc31 (stereo not drawn) [7a/7b] | > 128 | 2 (≈ 5.13 µM) | 92.5 | 4 (≈ 10.3 µM) | >9.7 | 13 | cytotoxicity at 128 µg/mL (Vero cells): 4%; IC50 (VRE): 7.5 µg/mL (≈ 19.3 µM); IC50 (MRSA): 3 µg/mL (≈ 7.7 µM); MIC [2, 6]: 12 µg/mL; MIC ([2]; value given in μM): 31 µM; MIC ([4]; MABA, value given in μM, read-out: MIC against M. tuberculosis H37Rv): 34 µM
CC(C)=C[C@@H]1C[C@H](C)[C@H]2CC[C@H](C)c3c(O)c(O)c(C)c1c32 [Compound 4, pseudopterosin G–J aglycone] | 50 (≈ 166 µM) | 8 (≈ 26.6 µM) | 53.1 | 8 (≈ 26.6 µM) | – | > 128 | IC50 (VRE; microbroth dilution): > 128 µg/mL; IC50 (MRSA; microbroth dilution): 88 µg/mL (≈ 293 µM)
CC(C)=C[C@@H]1C[C@H](C)[C@H]2CC[C@H](C)c3c2c1c(C)c1nccnc31 [Compound 5, Pseudopteroquinoxaline] | 22 (≈ 68.6 µM) | 64 (≈ 200 µM) | 99.9 | 16 (≈ 49.9 µM) | 0.8 | 29 | IC50 (VRE; microbroth dilution): > 128 µg/mL; IC50 (MRSA; microbroth dilution): > 128 µg/mL
COC(C)(C)C[C@@H]1C[C@H](C)[C@H]2CC[C@H](C)c3c2c1c(C)c1nccnc31 [Compound 6, 14,15-Dihydro-15-methoxy-pseudopteroquinoxaline] | 15 (≈ 42.6 µM) | – | 99.9 | – | 0.2 | 84 | –
CCCCCOc1c(C)c2c3c(c1O)[C@@H](C)CC[C@@H]3[C@@H](C)C[C@H]2C=C(C)C [Compound 8, 10-Pentoxy-pseudopterosin G–J Aglycone] | 49 (≈ 132 µM) | > 128 | 35.1 | > 128 | – | > 128 | IC50 (VRE; microbroth dilution): 22 µg/mL (≈ 59.4 µM); IC50 (MRSA; microbroth dilution): 47 µg/mL (≈ 127 µM)
COc1c(C)c2c3c(c1O)[C@@H](C)CC[C@@H]3[C@@H](C)C[C@H]2C=C(C)C [Compound 9] | > 128 | 4 (≈ 12.7 µM) | 99.7 | 4 (≈ 12.7 µM) | >4.3 | 30 | cytotoxicity at 128 µg/mL (Vero cells): 26%; IC50 (VRE; microbroth dilution): 12 µg/mL (≈ 38.2 µM); IC50 (MRSA; microbroth dilution): 9 µg/mL (≈ 28.6 µM); MIC [2, 6]: 52 µg/mL
COc1c(C)c2c3c(c1OC)[C@@H](C)CC[C@@H]3[C@@H](C)C[C@H]2C=C(C)C [Compound 10, 9,10-Dimethoxy-pseudopterosin G–J Aglycone] | 51 (≈ 155 µM) | > 64 | 77.5 | > 64 | – | > 128 | IC50 (VRE; microbroth dilution): 25 µg/mL (≈ 76.1 µM); IC50 (MRSA; microbroth dilution): > 128 µg/mL
COc1c(C)c2c3c(c1OS(=O)(=O)C(F)(F)F)[C@@H](C)CC[C@@H]3[C@@H](C)C[C@H]2C=C(C)C [Compound 11, 9-Trifluoromethylsulfonyloxy-10-methoxy-pseudopterosin G–J Aglycone] | 51 (≈ 114 µM) | > 64 | 37.5 | > 64 | – | > 128 | IC50 (VRE; microbroth dilution): > 128 µg/mL; IC50 (MRSA; microbroth dilution): > 128 µg/mL
COc1c(C)c2c3c(c1OC(=O)N(C)C)[C@@H](C)CC[C@@H]3[C@@H](C)C[C@H]2C=C(C)C [Compound 12, 9-Dimethylcarbamoyloxy-10-methoxy-pseudopterosin G–J Aglycone] | > 128 | – | 80 | – | – | > 128 | cytotoxicity at 128 µg/mL (Vero cells): 0%; MIC ([1]; ATCC19340, read-out: MIC M. diernhoferi): > 64 µg/mL; IC50 (VRE): 70 µg/mL (≈ 182 µM); IC50 (MRSA): > 128 µg/mL; MIC ([3]; ATCC12051, read-out: MIC M. smegmatis): 64 µg/mL (≈ 166 µM)
CC(C)=C[C@@H]1C[C@H](C)[C@H]2CC[C@H](C)c3c2c1c(C)c1ocnc31 [Compound 22, isopseudopteroxazole] | 52 (≈ 168 µM) | – | 100 | – | 3.6 | 14 | MIC [2, 6]: 44 µg/mL
COc1ccccc1-c1nc2c(C)c3c4c(c2o1)C(C)CCC4C(C)CC3C=C(C)C (stereo not drawn) [Compound 23] | 34 (≈ 81.8 µM) | – | 83.3 | – | – | > 82 | –
CC(C)=CC1CC(C)C2CCC(C)c3c2c1c(C)c1nc(-c2ccc(F)cc2)oc31 (stereo not drawn) [Compound 24] | > 31 | – | -19 | – | – | > 31 | cytotoxicity at 128 µg/mL (Vero cells): 0%
CC(C)=CC1CC(C)C2CCC(C)c3c2c1c(C)c1nc(C)oc31 (stereo not drawn) [Compound 25] | 12 (≈ 37.1 µM) | – | 99 | – | 0.8 | 15 | –
CCC(C)c1nc2c(C)c3c4c(c2o1)C(C)CCC4C(C)CC3C=C(C)C (stereo not drawn) [Compound 26] | 73 (≈ 200 µM) | – | 59.1 | – | – | > 103 | –
CSCCc1nc2c(C)c3c4c(c2o1)C(C)CCC4C(C)CC3C=C(C)C (stereo not drawn) [Compound 27] | > 128 | – | 90 | – | >1.2 | 107 | cytotoxicity at 128 µg/mL (Vero cells): 0%
CC(C)=CC1CC(C)C2CCC(C)c3c2c1c(C)c1nc(Cc2ccccc2)oc31 (stereo not drawn) [Compound 28] | 82 (≈ 205 µM) | – | 13.7 | – | – | > 128 | –
CC(C)=CC1CC(C)C2CCC(C)c3c2c1c(C)c1nc(C(C)O)oc31 (stereo not drawn) [Compound 29] | 24 (≈ 67.9 µM) | – | 99.8 | – | 0.5 | 53 | –
COC(=O)CCc1nc2c(C)c3c4c(c2o1)C(C)CCC4C(C)CC3C=C(C)C (stereo not drawn) [Compound 30] | 31 (≈ 78.4 µM) | – | 99.1 | – | – | > 128 | MIC [2, 6]: 62 µg/mL
CC(C)=CC1CC(C)C2CCC(C)c3c2c1c(C)c1nc(CCC(=O)O)oc31 (stereo not drawn) [Compound 31] | 102 (≈ 267 µM) | – | 99.1 | – | 1.1 | 95 | –
CC(C)=CC1CC(C)C2CCC(C)c3c2c1c(C)c1nc(CCC(N)=O)oc31 (stereo not drawn) [Compound 32] | 54 (≈ 142 µM) | – | 99 | – | 1.9 | 29 | –
CC(C)=CC1CC(C)C2CCC(C)c3c2c1c(C)c1nc(CC(N)=O)oc31 (stereo not drawn) [Compound 33] | 45 (≈ 123 µM) | – | 97.1 | – | 0.8 | 59 | –
NNC(=O)c1ccncc1 [Isoniazid] | – | – | – | – | – | 0.03 | LORA (% inh) in MIC column ([2]; % inhibition in parentheses, where the MIC exceeds the stated concentration): 65%; MIC [2, 6]: > 128 µg/mL; MIC [4, 9]: 0.03 µg/mL
O=[N+]([O-])c1cn2c(n1)OC[C@@H](OCc1ccc(OC(F)(F)F)cc1)C2 [PA824, reference compound] | – | – | – | – | – | 0.15 | –
CO[C@H]1/C=C/O[C@@]2(C)Oc3c(C)c(O)c4c(O)c(c(/C=N/N5CCN(C)CC5)c(O)c4c3C2=O)NC(=O)/C(C)=C\C=C\[C@H](C)[C@H](O)[C@@H](C)[C@@H](O)[C@@H](C)[C@H](OC(C)=O)[C@@H]1C [Rifampin, reference compound] | – | 4 (≈ 4.86 µM) | – | 4 (≈ 4.86 µM) | – | 0.04 | IC50 (VRE; microbroth dilution): 0.88 µg/mL (≈ 1.07 µM); MIC [2]: 0.93 µg/mL; MIC [4, 9]: 0.03 µg/mL
CN[C@H](CC(C)C)C(=O)N[C@H]1C(=O)N[C@@H](CC(N)=O)C(=O)N[C@H]2C(=O)N[C@H]3C(=O)N[C@H](C(=O)N[C@H](C(=O)O)c4cc(O)cc(O)c4-c4cc3ccc4O)[C@H](O)c3ccc(c(Cl)c3)Oc3cc2cc(c3O[C@@H]2O[C@H](CO)[C@@H](O)[C@H](O)[C@H]2O[C@H]2C[C@](C)(N)[C@H](O)[C@H](C)O2)Oc2ccc(cc2Cl)[C@H]1O [Vancomycin, reference compound] | – | – | – | – | – | – | IC50 (MRSA): 1.23 µg/mL (≈ 0.849 µM)
